Reference: PubChem BioAssay AID1259411 (Chemical Carcinogenesis Research Information System (CCRIS), 2018)
The source made the active and inactive calls. No rule for the calls is given here.

Tested on: rodent carcinogenicity bioassays, tumor incidence
Experiment: CCRIS carcinogenicity studies
Method in brief: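 Archive of carcinogenicity, mutagenicity, tumor promotion and tumor inhibition results drawn from journals, NCI reports and other sources, expert-reviewed; covers 1985-2011 and is no longer updated.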

OCc1ccco1
carcinogen call (Species: MOUSE, Strain/Sex: B6C3F1/FEMALE, Route: INHALATION, Dose: 0, 2, 8, 32 PPM 6 HR/D 5 D/WK FOR 105 WK (STUDY DURATION: 105 WK), Dose: 0, 2, 8, 32 PPM 6 HR/D 5 D/WK FOR 105 WK (STUDY DURATION: 105 WK)): inactive; negative | carcinogen call (Species: MOUSE, Strain/Sex: B6C3F1/MALE, Route: INHALATION, Dose: 0, 2, 8, 32 PPM 6 HR/D 5 D/WK FOR 105 WK (STUDY DURATION: 105 WK), Dose: 0, 2, 8, 32 PPM 6 HR/D 5 D/WK FOR 105 WK (STUDY DURATION: 105 WK), Tumor Site: Type of Lesion: KIDNEY: RENAL TUBULE ADENOMA, CARCINOMA): active; positive | carcinogen call (Species: RAT, Strain/Sex: F344/FEMALE, Route: INHALATION, Dose: 0, 2, 8, 32 PPM 6 HR/D 5 D/WK FOR 105 WK (STUDY DURATION: 105 WK), Dose: 0, 2, 8, 32 PPM 6 HR/D 5 D/WK FOR 105 WK (STUDY DURATION: 105 WK), Tumor Site: Type of Lesion: NOSE: LATERAL WALL, ADENOMA, RESPIRATORY EPITHELIUM ADENOMA, KIDNEY (RENAL TUBULE): ADENOMA, CARCINOMA, ADENOMA OR CARCI): equivocal | carcinogen call (Species: RAT, Strain/Sex: F344/MALE, Route: INHALATION, Dose: 0, 2, 8, 32 PPM 6 HR/D 5 D/WK FOR 105 WK (STUDY DURATION: 105 WK), Dose: 0, 2, 8, 32 PPM 6 HR/D 5 D/WK FOR 105 WK (STUDY DURATION: 105 WK), Tumor Site: Type of Lesion: NOSE: ADENOMA, CARCINOMA, OR SQUAMOUS CELL CARCINOMA): active; positive

CNC(=O)Oc1cc(C)c(N(C)C)c(C)c1
carcinogen call (Species: MOUSE, Strain/Sex: B6C3F1/FEMALE, Route: ORAL, Dose: 0, 68, 135 PPM IN DIET, TWA, Dose: 0, 68, 135 PPM IN DIET, TWA): inactive; negative | carcinogen call (Species: MOUSE, Strain/Sex: B6C3F1/MALE, Route: ORAL, Dose: 0, 327, 654 PPM IN DIET, TWA, Dose: 0, 327, 654 PPM IN DIET, TWA): inactive; negative | carcinogen call (Species: RAT, Strain/Sex: OSBORNE-MENDEL/FEMALE, Route: ORAL, Dose: 0, 339, 678 PPM IN DIET, TWA, Dose: 0, 339, 678 PPM IN DIET, TWA): inactive; negative | carcinogen call (Species: RAT, Strain/Sex: OSBORNE-MENDEL/MALE, Route: ORAL, Dose: 0, 209, 418 PPM IN DIET, TWA, Dose: 0, 209, 418 PPM IN DIET, TWA): inactive; negative

COc1ccc(C)cc1N
carcinogen call (Species: MOUSE, Strain/Sex: B6C3F1/FEMALE, Route: ORAL, Dose: 0, 0.22, 0.44% TWA, IN DIET FOR 104 WK (STUDY DURATION: 97-106 WK), Dose: 0, 0.22, 0.44% TWA, IN DIET FOR 104 WK (STUDY DURATION: 97-106 WK), Tumor Site: Type of Lesion: LIVER: HEPATOCELLULAR CARCINOMA, HEPATOCELLULAR CARCINOMA OR ADENOMA, URINARY BLADDER: TRANSITIONAL CELL CARCINOMA OR CA): active; positive | carcinogen call (Species: MOUSE, Strain/Sex: B6C3F1/MALE, Route: ORAL, Dose: 0, 0.22, 0.46% TWA, IN DIET FOR 92-104 WK (STUDY DURATION: 92-106 WK), Dose: 0, 0.22, 0.46% TWA, IN DIET FOR 92-104 WK (STUDY DURATION: 92-106 WK), Tumor Site: Type of Lesion: URINARY BLADDER: SQUAMOUS CELL CARCINOMA OR TRANSITIONAL CELL CARCINOMA): active; positive | carcinogen call (Species: RAT, Strain/Sex: F344/FEMALE, Route: ORAL, Dose: 0, 0.5, 1.0% IN DIET FOR 104 WK (STUDY DURATION: 106 WK), Dose: 0, 0.5, 1.0% IN DIET FOR 104 WK (STUDY DURATION: 106 WK), Tumor Site: Type of Lesion: NASAL CAVITY: OLFACTORY NEUROBLASTOMA, URINARY BLADDER: NEOPLASM (NOS) OR PAPILLARY CARCINOMA OR SQUAMOUS CELL CARCINOMA): active; positive | carcinogen call (Species: RAT, Strain/Sex: F344/MALE, Route: ORAL, Dose: 0, 0.5, 1.0% IN DIET FOR 104 WK (STUDY DURATION: 105-106 WK), Dose: 0, 0.5, 1.0% IN DIET FOR 104 WK (STUDY DURATION: 105-106 WK), Tumor Site: Type of Lesion: NASAL CAVITY: NEUROBLASTOMA OR OLFACTORY NEUROBLASTOMA, LIVER: NEOPLASTIC NODULE OR HEPATOCELLULAR CARCINOMA OR MIXED HE): active; positive

c1ccc2cc3c(cc2c1)-c1cccc2cccc-3c12
carcinogen call (Species: MOUSE, Route: DERMAL, Tumor Site: Type of Lesion: INTEGUMENTARY SYSTEM (SKIN)): active; positive | carcinogen call (Species: RAT, Strain/Sex: OSBORNE-MENDEL/FEMALE, Route: LUNG IMPLANT, Dose: 0, 0.16, 0.83, 4.15 MG IN BEESWAX/TRIOCTANOIN (STUDY DURATION: LIFETIME), Dose: 0, 0.16, 0.83, 4.15 MG IN BEESWAX/TRIOCTANOIN (STUDY DURATION: LIFETIME), Tumor Site: Type of Lesion: LUNG: EPIDERMOID CARCINOMA): active; positive

CCCCCCCC/C=C/CCCCCCCC(=O)OCCOCC(OCCO)C1OCC(OCCO)C1OCCO (stereo not drawn)
carcinogen call (Species: MOUSE, Strain/Sex: B6C3F1/FEMALE, Route: ORAL, Dose: 0, 25000, 50000 PPM IN FEED 7 D/WK FOR 103 WK (STUDY DURATION: 103 WK), Dose: 0, 25000, 50000 PPM IN FEED 7 D/WK FOR 103 WK (STUDY DURATION: 103 WK)): inactive; negative | carcinogen call (Species: MOUSE, Strain/Sex: B6C3F1/MALE, Route: ORAL, Dose: 0, 25000, 50000 PPM IN FEED 7 D/WK FOR 103 WK (STUDY DURATION: 103 WK), Dose: 0, 25000, 50000 PPM IN FEED 7 D/WK FOR 103 WK (STUDY DURATION: 103 WK)): inactive; negative | carcinogen call (Species: RAT, Strain/Sex: F344/FEMALE, Route: ORAL, Dose: 0, 25000, 50000 PPM IN FEED 7 D/WK FOR 103 WK (STUDY DURATION: 103 WK), Dose: 0, 25000, 50000 PPM IN FEED 7 D/WK FOR 103 WK (STUDY DURATION: 103 WK)): inactive; negative | carcinogen call (Species: RAT, Strain/Sex: F344/MALE, Route: ORAL, Dose: 0, 25000, 50000 PPM IN FEED 7 D/WK FOR 103 WK (STUDY DURATION: 103 WK), Dose: 0, 25000, 50000 PPM IN FEED 7 D/WK FOR 103 WK (STUDY DURATION: 103 WK), Tumor Site: Type of Lesion: ADRENAL MEDULLA: PHEOCHROMOCYTOMA): equivocal

Nc1ccc(N=Nc2ccccc2)c(N)n1
carcinogen call (Species: MOUSE, Strain/Sex: B6C3F1/FEMALE, Route: ORAL, Dose: 0, 600, 1200 PPM IN DIET, Dose: 0, 600, 1200 PPM IN DIET, Tumor Site: Type of Lesion: LIVER: HEPATOCELLULAR ADENOMA OR HEPATOCELLULAR CARCINOMA): active; positive | carcinogen call (Species: MOUSE, Strain/Sex: B6C3F1/MALE, Route: ORAL, Dose: 0, 600, 1200 PPM IN DIET, Dose: 0, 600, 1200 PPM IN DIET): active; positive | carcinogen call (Species: RAT, Strain/Sex: F344/FEMALE, Route: ORAL, Dose: 0, 3700, 7500 PPM IN DIET, Dose: 0, 3700, 7500 PPM IN DIET, Tumor Site: Type of Lesion: COLON: ADENOCARCINOMA (NOS)): active; positive | carcinogen call (Species: RAT, Strain/Sex: F344/MALE, Route: ORAL, Dose: 0, 3700, 7500 PPM IN DIET, Dose: 0, 3700, 7500 PPM IN DIET, Tumor Site: Type of Lesion: INTESTINES (COLON OR RECTUM): ADENOCARCINOMA (NOS), ADENOCARCINOMA (NOS) OR ADENOMA (NOS)): active; positive

C#C[C@]1(OC(C)=O)CC[C@H]2[C@@H]3CCC4=CC(=O)CC[C@@H]4[C@H]3CC[C@@]21C
carcinogen call (Species: MOUSE, Route: ORAL, Tumor Site: Type of Lesion: LIVER, PITUITARY GLAND): active; positive | carcinogen call (Species: RAT, Route: ORAL, Tumor Site: Type of Lesion: LIVER): active; positive

C=C(C)[C@H]1CC=C(C)CC1
carcinogen call (Species: MOUSE, Strain/Sex: B6C3F1/FEMALE, Route: GAVAGE, Dose: 0, 500, 1000 MG/KG IN CORN OIL 5 D/WK FOR 103 WK (STUDY DURATION: 105 WK), Dose: 0, 500, 1000 MG/KG IN CORN OIL 5 D/WK FOR 103 WK (STUDY DURATION: 105 WK)): inactive; negative | carcinogen call (Species: MOUSE, Strain/Sex: B6C3F1/MALE, Route: GAVAGE, Dose: 0, 250, 500 MG/KG IN CORN OIL 5 D/WK FOR 103 WK (STUDY DURATION: 105 WK), Dose: 0, 250, 500 MG/KG IN CORN OIL 5 D/WK FOR 103 WK (STUDY DURATION: 105 WK)): inactive; negative | carcinogen call (Species: RAT, Strain/Sex: F344/FEMALE, Route: GAVAGE, Dose: 0, 300, 600 MG/KG IN CORN OIL 5 D/WK FOR 103 WK (STUDY DURATION: 106 WK), Dose: 0, 300, 600 MG/KG IN CORN OIL 5 D/WK FOR 103 WK (STUDY DURATION: 106 WK)): inactive; negative | carcinogen call (Species: RAT, Strain/Sex: F344/MALE, Route: GAVAGE, Dose: 0, 75, 150 MG/KG IN CORN OIL 5 D/WK FOR 103 WK (STUDY DURATION: 106 WK), Dose: 0, 75, 150 MG/KG IN CORN OIL 5 D/WK FOR 103 WK (STUDY DURATION: 106 WK), Tumor Site: Type of Lesion: KIDNEY: TUBULAR CELL ADENOMA, TUBULAR CELL ADENOMA OR ADENOCARCINOMA): active; positive
